Here are results for one compound from PMC5218480 (PLoS ONE, 2017).

This assay relates to MV-4-11 cells. Put plainly: Gene expression microarray analysis (Affymetrix PrimeView) and GSEA. The assay is classed as cell-based, human. Also noted: RFU PODN (11730768_x_at) / Fold change /veh PODN (11730768_x_at) / RFU LINC00158 (11744669_a_at) / Fold change /veh LINC00158 (11744669_a_at) / RFU DUSP10 (11751237_a_at) / Fold change /veh DUSP10 (11751237_a_at) / RFU ID3 (11757404_x_at) / Fold change /veh ID3 (11757404_x_at) / RFU PLEKHG5 (11737974_s_at) / Fold change /veh PLEKHG5 (11737974_s_at) / RFU LRRC4B (11730491_at) / Fold change /veh LRRC4B (11730491_at) / RFU GIMAP4 (11747438_a_at) / Fold change /veh GIMAP4 (11747438_a_at) / RFU KRT8 (11758183_x_at) / Fold change /veh KRT8 (11758183_x_at) / RFU CNN1 (11734310_a_at) / Fold change /veh CNN1 (11734310_a_at) / RFU VPS37D (11726825_at) / Fold change /veh VPS37D (11726825_at) / RFU C10orf10 (11716522_x_at) / Fold change /veh C10orf10 (11716522_x_at) / RFU KIR2DL2 /// KIR2DL4 /// KIR2DL5A /// KIR2DL5B /// KIR2DS1 /// KIR2DS2 /// KIR2DS3 /// KIR2DS4 /// KIR3DL3 /// KIR3DL3 /// KIR3DS1 (11738374_at) / Fold change /veh KIR2DL2 /// KIR2DL4 /// KIR2DL5A /// KIR2DL5B /// KIR2DS1 /// KIR2DS2 /// KIR2DS3 /// KIR2DS4 /// KIR3DL3 /// KIR3DL3 /// KIR3DS1 (11738374_at) / RFU C1QL1 (11718748_at) / Fold change /veh C1QL1 (11718748_at) / RFU TMPRSS4 (11747572_a_at) / Fold change /veh TMPRSS4 (11747572_a_at) / RFU HAMP (11756126_x_at) / Fold change /veh HAMP (11756126_x_at) / RFU RNFT2 (11725882_a_at) / Fold change /veh RNFT2 (11725882_a_at) / RFU NR4A2 (11747474_a_at) / Fold change /veh NR4A2 (11747474_a_at) / RFU ABCC12 (11746883_a_at) / Fold change /veh ABCC12 (11746883_a_at) / RFU TMEM136 (11760407_x_at) / Fold change /veh TMEM136 (11760407_x_at) / RFU CLDN22 /// WWC2 (11732394_at) / Fold change /veh CLDN22 /// WWC2 (11732394_at) / RFU HLA-DPB1 (11760878_x_at) / Fold change /veh HLA-DPB1 (11760878_x_at) / RFU SPINT1 (11716480_a_at) / Fold change /veh SPINT1 (11716480_a_at) / RFU GAP43 (11754022_s_at) / Fold change /veh GAP43 (11754022_s_at) / RFU A4GNT (11735810_at) / Fold change /veh A4GNT (11735810_at) / RFU PRB3 (11715151_x_at) / Fold change /veh PRB3 (11715151_x_at) / RFU TUBB4B (11761932_at) / Fold change /veh TUBB4B (11761932_at) / RFU CAPN14 (11732068_a_at) / Fold change /veh CAPN14 (11732068_a_at) / RFU TMCC2 (11721928_a_at) / Fold change /veh TMCC2 (11721928_a_at) / RFU IRGQ (11745062_a_at) / Fold change /veh IRGQ (11745062_a_at) / RFU FAM174B (11720279_a_at) / Fold change /veh FAM174B (11720279_a_at) / RFU TMPRSS4 (11748680_a_at) / Fold change /veh TMPRSS4 (11748680_a_at) / RFU FAM212B (11763350_a_at) / Fold change /veh FAM212B (11763350_a_at) / RFU PLEKHG5 (11743358_a_at) / Fold change /veh PLEKHG5 (11743358_a_at) / RFU ZSCAN30 (11745921_a_at) / Fold change /veh ZSCAN30 (11745921_a_at) / RFU CMKLR1 (11741424_a_at) / Fold change /veh CMKLR1 (11741424_a_at) / RFU LOC101060620 /// MAPK8IP1 (11723275_at) / Fold change /veh LOC101060620 /// MAPK8IP1 (11723275_at) / RFU SPTSSB (11747773_x_at) / Fold change /veh SPTSSB (11747773_x_at) / RFU PRSS12 (11739890_at) / Fold change /veh PRSS12 (11739890_at) / RFU BIN1 (11741810_x_at) / Fold change /veh BIN1 (11741810_x_at) / RFU WNT11 (11732464_a_at) / Fold change /veh WNT11 (11732464_a_at) / RFU C10orf10 (11716521_a_at) / Fold change /veh C10orf10 (11716521_a_at) / RFU C5orf56 (11738089_at) / Fold change /veh C5orf56 (11738089_at) / RFU CYB561 (11721691_x_at) / Fold change /veh CYB561 (11721691_x_at) / RFU ANKRD19P (11752326_a_at) / Fold change /veh ANKRD19P (11752326_a_at) / RFU OR2T12 /// OR2T33 /// OR2T8 (11738714_s_at) / Fold change /veh OR2T12 /// OR2T33 /// OR2T8 (11738714_s_at) / RFU VCAN (11748164_a_at) / Fold change /veh VCAN (11748164_a_at) / RFU JSRP1 (11732532_at) / Fold change /veh JSRP1 (11732532_at) / RFU KRTAP10-11 (11738290_x_at) / Fold change /veh KRTAP10-11 (11738290_x_at) / RFU MYO3A (11730013_a_at) / Fold change /veh MYO3A (11730013_a_at) / RFU EBF3 (11725865_a_at) / Fold change /veh EBF3 (11725865_a_at) / RFU CAMK2N1 (11719241_x_at) / Fold change /veh CAMK2N1 (11719241_x_at) / RFU C5orf56 (11738088_a_at) / Fold change /veh C5orf56 (11738088_a_at) / RFU OLFML3 (11715873_a_at) / Fold change /veh OLFML3 (11715873_a_at) / RFU LOC100653217 /// NTM (11731650_a_at) / Fold change /veh LOC100653217 /// NTM (11731650_a_at) / RFU MAPK11 (11762145_a_at) / Fold change /veh MAPK11 (11762145_a_at) / RFU FIZ1 (11724087_x_at) / Fold change /veh FIZ1 (11724087_x_at) / RFU OASL (11726364_x_at) / Fold change /veh OASL (11726364_x_at) / RFU SOX15 (11748057_x_at) / Fold change /veh SOX15 (11748057_x_at) / RFU CD79A (11719716_a_at) / Fold change /veh CD79A (11719716_a_at) / RFU HIST1H1D (11736915_at) / Fold change /veh HIST1H1D (11736915_at) / RFU CASKIN2 (11723855_a_at) / Fold change /veh CASKIN2 (11723855_a_at) / RFU LOC730098 (11760151_x_at) / Fold change /veh LOC730098 (11760151_x_at) / RFU OR4N2 (11742367_at) / Fold change /veh OR4N2 (11742367_at) / RFU PRRT2 (11749266_a_at) / Fold change /veh PRRT2 (11749266_a_at) / RFU SNX32 (11753110_a_at) / Fold change /veh SNX32 (11753110_a_at) / RFU CDHR5 (11726645_a_at) / Fold change /veh CDHR5 (11726645_a_at) / RFU RCAN1 (11760418_a_at) / Fold change /veh RCAN1 (11760418_a_at) / RFU FAM167A (11723789_a_at) / Fold change /veh FAM167A (11723789_a_at) / RFU FAM26E (11764081_at) / Fold change /veh FAM26E (11764081_at) / RFU ISYNA1 (11749810_s_at) / Fold change /veh ISYNA1 (11749810_s_at) / RFU ACY1 (11761880_at) / Fold change /veh ACY1 (11761880_at) / RFU 11764098_at / Fold change /veh 11764098_at / RFU SAMD14 (11745864_x_at) / Fold change /veh SAMD14 (11745864_x_at) / RFU NPB (11741838_a_at) / Fold change /veh NPB (11741838_a_at) / RFU TMPRSS6 (11731388_a_at) / Fold change /veh TMPRSS6 (11731388_a_at) / RFU KRTAP10-2 (11738614_at) / Fold change /veh KRTAP10-2 (11738614_at) / RFU ARHGAP8 /// PRR5-ARHGAP8 (11727945_x_at) / Fold change /veh ARHGAP8 /// PRR5-ARHGAP8 (11727945_x_at) / RFU KRTAP5-7 /// NADSYN1 (11734609_at) / Fold change /veh KRTAP5-7 /// NADSYN1 (11734609_at) / RFU RASL12 (11751679_a_at) / Fold change /veh RASL12 (11751679_a_at) / RFU CDKN2B (11736163_a_at) / Fold change /veh CDKN2B (11736163_a_at) / RFU PRF1 (11729649_at) / Fold change /veh PRF1 (11729649_at) / RFU, ZNF638 /// ZNF638-IT1 / Fold change vs veh, ZNF638 /// ZNF638-IT1 / RFU, PANK3 / Fold change vs veh, PANK3 / RFU, SH3YL1 / Fold change vs veh, SH3YL1 / RFU, ZEB2 / Fold change vs veh, ZEB2 / RFU, NRIP1 / Fold change vs veh, NRIP1 / RFU, PTTG1IP / Fold change vs veh, PTTG1IP / RFU, CAPN2 / Fold change vs veh, CAPN2 / RFU, MED14 / Fold change vs veh, MED14 / RFU, SNORA58 / Fold change vs veh, SNORA58 / RFU, C1orf63 / Fold change vs veh, C1orf63 / RFU, LRRFIP1 / Fold change vs veh, LRRFIP1 / RFU, NDUFAF7 / Fold change vs veh, NDUFAF7 / RFU, SLC12A2 / Fold change vs veh, SLC12A2 / RFU, IBTK / Fold change vs veh, IBTK / RFU, ESF1 / Fold change vs veh, ESF1 / Fold change vs veh, TMEM50B / RFU, TAOK1 / Fold change vs veh, TAOK1 / RFU, ACBD3 / Fold change vs veh, ACBD3 / RFU, TMA16 / Fold change vs veh, TMA16 / RFU, RWDD3 / Fold change vs veh, RWDD3 / RFU, BCAT1 / Fold change vs veh, BCAT1 / RFU, EDEM3 / Fold change vs veh, EDEM3 / RFU, TMEM33 / Fold change vs veh, TMEM33 / RFU, WDR75 / Fold change vs veh, WDR75 / RFU, AHCTF1 / Fold change vs veh, AHCTF1 / RFU, TFRC / Fold change vs veh, TFRC / RFU, ZDHHC17 / Fold change vs veh, ZDHHC17 / RFU, NOM1 / Fold change vs veh, NOM1 / RFU, ARL8B / Fold change vs veh, ARL8B / RFU, ZBTB11 / Fold change vs veh, ZBTB11 / RFU, TAMM41 / Fold change vs veh, TAMM41 / RFU, KIAA1704 /// LOC100996395 / Fold change vs veh, KIAA1704 /// LOC100996395 / RFU, ING1 / Fold change vs veh, ING1 / RFU, TRMT61B / Fold change vs veh, TRMT61B / RFU, FUBP3 / Fold change vs veh, FUBP3 / RFU, TP53 / Fold change vs veh, TP53 / RFU, TNKS2 / Fold change vs veh, TNKS2 / RFU, ZFP14 / Fold change vs veh, ZFP14 / RFU, ACTR2 / Fold change vs veh, ACTR2 / RFU, PPP3R1 / Fold change vs veh, PPP3R1 / RFU, PIK3R1 / Fold change vs veh, PIK3R1 / RFU, HNRNPA1 / Fold change vs veh, HNRNPA1 / RFU, RNF170 / Fold change vs veh, RNF170 / RFU, ZNF28 / Fold change vs veh, ZNF28 / RFU, RNGTT / Fold change vs veh, RNGTT / RFU, OGT / Fold change vs veh, OGT / RFU, BRD1 / Fold change vs veh, BRD1 / RFU, MARS / Fold change vs veh, MARS / RFU, ZNF655 / Fold change vs veh, ZNF655 / RFU, FAHD1 / Fold change vs veh, FAHD1 / RFU, BDP1 / Fold change vs veh, BDP1 / RFU, LRRCC1 / Fold change vs veh, LRRCC1 / RFU, ARID1A / Fold change vs veh, ARID1A / RFU, ZNF146 / Fold change vs veh, ZNF146 / RFU, ZNF330 / Fold change vs veh, ZNF330 / RFU, GPN3 / Fold change vs veh, GPN3 / RFU, C9orf123 / Fold change vs veh, C9orf123 / RFU, N4BP2L2 / Fold change vs veh, N4BP2L2 / RFU, ARFIP1 / Fold change vs veh, ARFIP1 / RFU, FAM179B / Fold change vs veh, FAM179B / RFU, BCL10 / Fold change vs veh, BCL10 / RFU, UHRF1BP1L / Fold change vs veh, UHRF1BP1L / RFU, BET1 / Fold change vs veh, BET1 / RFU, CNOT2 / Fold change vs veh, CNOT2 / RFU, ZNF268 / Fold change vs veh, ZNF268 / Fold change vs veh, ZNF507 / RFU, DGCR2 / Fold change vs veh, DGCR2 / RFU, WDSUB1 / Fold change vs veh, WDSUB1 / Fold change vs veh, HSP90B1 /// MIR3652 / RFU, ADSS / Fold change vs veh, ADSS / RFU, GK / Fold change vs veh, GK / RFU, ZNF148 / Fold change vs veh, ZNF148 / RFU, TAF9 / Fold change vs veh, TAF9 / RFU, SLC1A5 / Fold change vs veh, SLC1A5 / RFU, SLMO2 / Fold change vs veh, SLMO2 / RFU, ABCC4 / Fold change vs veh, ABCC4 / RFU, LOC101060439 /// RAP1B / Fold change vs veh, LOC101060439 /// RAP1B / RFU, RFX7 / Fold change vs veh, RFX7 / RFU, GTPBP10 / Fold change vs veh, GTPBP10 / RFU, CNEP1R1 / Fold change vs veh, CNEP1R1 / RFU, BIVM-ERCC5 /// ERCC5 / Fold change vs veh, BIVM-ERCC5 /// ERCC5 / RFU, ILF3 / Fold change vs veh, ILF3 / RFU 11762660_at / Fold change /veh 11762660_at / RFU VCAN (11757783_s_at) / Fold change /veh VCAN (11757783_s_at) / RFU DDX43 (11728927_at) / Fold change /veh DDX43 (11728927_at) / RFU KRT8 (11758188_x_at) / Fold change /veh KRT8 (11758188_x_at) / RFU NKD1 (11759106_at) / Fold change /veh NKD1 (11759106_at) / RFU SRD5A1 (11742802_a_at) / Fold change /veh SRD5A1 (11742802_a_at) / RFU TPSAB1 /// TPSB2 (11721975_s_at) / Fold change /veh TPSAB1 /// TPSB2 (11721975_s_at) / RFU GSTM3 (11746129_a_at) / Fold change /veh GSTM3 (11746129_a_at) / RFU IL23R (11737362_x_at) / Fold change /veh IL23R (11737362_x_at) / RFU TMEM51 (11727254_a_at) / Fold change /veh TMEM51 (11727254_a_at) / RFU PIWIL2 (11732686_x_at) / Fold change /veh PIWIL2 (11732686_x_at) / RFU ORM1 (11744905_x_at) / Fold change /veh ORM1 (11744905_x_at) / RFU CCDC152 (11743942_at) / Fold change /veh CCDC152 (11743942_at) / RFU ECM1 (11717891_a_at) / Fold change /veh ECM1 (11717891_a_at) / RFU IL23R (11748794_a_at) / Fold change /veh IL23R (11748794_a_at) / RFU TNFAIP8L3 (11732012_x_at) / Fold change /veh TNFAIP8L3 (11732012_x_at) / RFU MBOAT4 (11741988_at) / Fold change /veh MBOAT4 (11741988_at) / RFU 11764193_at / Fold change /veh 11764193_at / RFU TMEM53 (11763286_at) / Fold change /veh TMEM53 (11763286_at) / RFU MAGEB2 (11727129_at) / Fold change /veh MAGEB2 (11727129_at) / RFU TMEM200A (11744735_a_at) / Fold change /veh TMEM200A (11744735_a_at) / RFU CCDC152 (11751479_a_at) / Fold change /veh CCDC152 (11751479_a_at) / RFU FAM211A (11726209_a_at) / Fold change /veh FAM211A (11726209_a_at) / RFU RGS16 (11746705_a_at) / Fold change /veh RGS16 (11746705_a_at) / RFU VCAN (11755009_s_at) / Fold change /veh VCAN (11755009_s_at) / RFU RHOB (11743442_s_at) / Fold change /veh RHOB (11743442_s_at) / RFU RGS16 (11720943_a_at) / Fold change /veh RGS16 (11720943_a_at) / RFU RGS16 (11720944_at) / Fold change /veh RGS16 (11720944_at) / RFU, VPS4B / Fold change vs veh, VPS4B / RFU, CREB1 / Fold change vs veh, CREB1 / RFU, DNAJC13 / Fold change vs veh, DNAJC13 / RFU, GNAQ / Fold change vs veh, GNAQ / RFU, CDK5R1 / Fold change vs veh, CDK5R1 / RFU, ZRANB3 / Fold change vs veh, ZRANB3 / RFU, CUL4A / Fold change vs veh, CUL4A / RFU, CCNY / Fold change vs veh, CCNY / RFU, UFL1 / Fold change vs veh, UFL1 / RFU, COG3 / Fold change vs veh, COG3 / RFU, DIAPH2 / Fold change vs veh, DIAPH2 / RFU, SKA2 / Fold change vs veh, SKA2 / RFU, AFF3 / Fold change vs veh, AFF3 / RFU, LMF1 / Fold change vs veh, LMF1 / RFU, IPO11 / Fold change vs veh, IPO11 / RFU, DFFB / Fold change vs veh, DFFB / RFU, FOXP1 / Fold change vs veh, FOXP1 / RFU, CARD8 / Fold change vs veh, CARD8 / RFU, STRN3 / Fold change vs veh, STRN3 / RFU, ADK / Fold change vs veh, ADK / RFU, RASSF2 / Fold change vs veh, RASSF2 / RFU, WIPF1 / Fold change vs veh, WIPF1 / RFU, LARP1B / Fold change vs veh, LARP1B / RFU, RASA1 / Fold change vs veh, RASA1 / RFU, RB1 / Fold change vs veh, RB1 / RFU, PPFIA1 / Fold change vs veh, PPFIA1 / RFU, MAT2A / Fold change vs veh, MAT2A / RFU, CCT5 / Fold change vs veh, CCT5 / RFU, WDR92 / Fold change vs veh, WDR92 / RFU, CUX1 / Fold change vs veh, CUX1 / RFU, TTC7A / Fold change vs veh, TTC7A / RFU, TMEM135 / Fold change vs veh, TMEM135 / RFU, DEPTOR / Fold change vs veh, DEPTOR / RFU, CPM / Fold change vs veh, CPM / RFU, DNAJB6 / Fold change vs veh, DNAJB6 / RFU, CACNA2D3 / Fold change vs veh, CACNA2D3 / RFU, DTX4 / Fold change vs veh, DTX4 / RFU, TFCP2 / Fold change vs veh, TFCP2 / RFU, GMCL1 /// GMCL1P1 / Fold change vs veh, GMCL1 /// GMCL1P1 / RFU, AEBP2 / Fold change vs veh, AEBP2 / RFU, SNHG1 /// SNORD22 /// SNORD25 /// SNORD26 /// SNORD27 /// SNORD28 /// SNORD29 /// SNORD31 / Fold change vs veh, SNHG1 /// SNORD22 /// SNORD25 /// SNORD26 /// SNORD27 /// SNORD28 /// SNORD29 /// SNORD31 / Fold change (Aza/veh), C12orf56 (ProbeSet 11735607_a_at) / Fold change (ACY-1035/veh), C12orf56 (ProbeSet 11735607_a_at) / Fold change (Aza/veh), FGFR1OP (ProbeSet 11751329_s_at) / Fold change (ACY-1035/veh), FGFR1OP (ProbeSet 11751329_s_at) / Fold change (Aza/veh), VPS36 (ProbeSet 11739960_a_at) / Fold change (ACY-1035/veh), VPS36 (ProbeSet 11739960_a_at) / RFU SYPL1 (11715823_x_at) / Fold change /veh SYPL1 (11715823_x_at) / RFU IGFBP7 (11715501_s_at) / Fold change /veh IGFBP7 (11715501_s_at) / RFU REEP3 (11722064_at) / Fold change /veh REEP3 (11722064_at) / RFU IGLL1 (11728026_x_at) / Fold change /veh IGLL1 (11728026_x_at): dose or concentration left out as unconfirmed. The note with it: ProbeSet 11750457_a_at; LIST B.

As to `Nc1ccc(-c2cccs2)cc1NC(=O)c1ccc2c(c1)cc(C1CC1)n2CCN1CCOCC1` [ACY-1035], the “Fold change vs veh, GTPBP10” value is reported as 0.84.
